Data published in patent US6380218B1, “Nicotinamide derivatives” (Pfizer Inc, priority 1997, dated 2002).
Structures can show the parent of a compound that is named as a salt.

| Compound | melting point [°C] |
| --- | --- |
| O=C(NCc1scc(Cl)c1Cl)c1cccnc1Oc1ccc(F)cc1 [Example 68, N-(3,4-Dichloro-thiophen-2-ylmethyl)-2-(4-fluoro-phenoxy)-nicotinamide] | 132 to 134 |
| CC(=O)c1cccc(Oc2ncccc2C(=O)NCc2ccc(C(C)(C)O)cc2F)c1 [Example 237, 2-(3-Acetyl-phenoxy)-N-[2-fluoro-4-(1-hydroxy-1-methyl-ethyl)-benzyl]nicotinamide] | 68 to 70 |
| O=C(NCc1ccc(OCC(F)(F)F)cc1)c1cccnc1Oc1cccnc1 [Example 25, 2-(Pyridin-3-yloxy)-N-[4-(2,2,2-trifluoro-ethoxy)-benzyl]-nicotinamide] | 98 to 100 |
| CC(C)(O)C1CCC(CNC(=O)c2cccnc2Oc2cccc(C#N)c2)CC1 (centres unmarked) [Example 214, 2-(3-Cyano-phenoxy)-N-[4-(1-hydroxy-1-methyl-ethyl)-cyclohexylmethyl]-nicotinamide] | 129 to 130 |
| O=C(NCc1ccc(O)cc1)c1cccnc1Oc1cccnc1 [Example 104, N-(4-Hydroxy-benzyl)-2-(pyridin-3yloxy)-nicotinamide] | 156 to 158 |
| OC(CCc1c(F)cc(F)cc1F)c1cccnc1Oc1ccc(F)cc1 (centres unmarked) [Example 274, 1-[2-(4-Fluoro-phenoxy)-pyridin-3-yl]-3-(2,4,6-trifluoro-phenyl)-propan-1-ol] | 90 to 91 |
| Cc1ccc(C(C)NC(=O)c2cccnc2Oc2cncc(Cl)c2)s1 (centres unmarked) [Example 50, 2-(5-Chloro-pyridin-3-yloxy)-N-[1-(5-methyl-thiophen-2-yl)-ethyl]-nicotinamide] | 75 to 77 |
| CC(C)(O)c1ccc(CNC(=O)c2cccnc2Oc2cccnc2)cc1 [Example 36, N-[4-(1-Hydroxy-1-methyl-ethyl)-benzyl]-2-(pyridin-3-yloxy)-nicotinamide] | 79 to 81 |
| C[C@@H](NC(=O)c1cccnc1Oc1cccnc1)c1cccs1 (as salt: HCl) [Example 47, (R)(−)-2-(Pyridin-3-yloxy)-N-(1-thiophen-2-yl-ethyl)-nicotinamide] | 197 to 199 |
| Nc1cccc(Oc2ncccc2C(=O)NCc2ccccc2Cl)c1 [Example 144, 2-(3-Amino-phenoxy)-N-(2-chloro-benzyl)-nicotinamide] | 101 to 103 |
| O=C(NCc1ccc(N2CCC2)cc1)c1cccnc1Oc1ccc(F)cc1 [Example 87, N-(4-Azetidin-1-yl-benzyl)-2-(4-fluoro-phenoxy)-nicotinamide] | 128 to 129 |
| O=C(NCc1ccc(Cl)o1)c1cccnc1Oc1cncc(Cl)c1 [Example 57, N-(5-Chloro-furan-2-ylmethyl)-2-(5-chloro-pyridin-3-yloxy)-nicotinamide] | 111 to 113 |
| O=C(NCc1c(F)cc(F)cc1F)c1cccnc1Oc1ccc(F)cc1 [Example 67, 2-(4-Fluoro-phenoxy)-N-(2,4,6-trifluoro-benzyl)-nicotinamide] | 128 to 130 |
| CC(C)(O)c1sc(CNC(=O)c2cccnc2Oc2ccc(F)cc2)cc1Cl [Example 81, N-[4-Chloro-5-(1-hydroxy-1-methyl-ethyl]-thiophen-2-ylmethyl]-2-(4-fluoro-phenoxy)-nicotinamide] | 115 to 117 |
| CSc1cccc(Oc2ncccc2C(=O)NCc2ccc(C(C)(C)O)cc2)c1 [Example 206, N-[4-(1-Hydroxy-1-methyl-ethyl)-benzyl]-2-(3-methylsulfanyl-phenoxy)-nicotinamide] | 107 to 109 |
| CC1(c2ccc(CNC(=O)c3cccnc3Oc3ccc(F)cc3)cc2)OCCO1 [Example 94, 2-(4-Fluoro-phenoxy)-N-[4-(2-methyl-[1,3]dioxolan-2-yl)-benzyl]-nicotinamide] | 78 to 80 |
| CCOC(=O)c1cc2cc(CNC(=O)c3cccnc3Oc3ccc(F)cc3)ccc2[nH]1 [Example 75, 5-({[2-(4-Fluoro-phenoxy)-pyridine-3-carbonyl]-amino}-methyl)-1H-indole-2-carboxylic acid ethyl ester] | 185 to 187 |
